Test results reported in patent US11999727B2 (Tango Therapeutics, Inc., priority 2020, dated 2024).
Read-outs that look alike come from different tables or passages of the source.

How the values were obtained:
[1] = target: T1, PRMT5 (Homo sapiens, UniProt O14744); experiment: PRMT5 biochemical IC50 assay with SAM as cofactor
T1 construct: purchased Viva (custom protein)

[2] = system: HAP1 MTAP-deleted cell line; experiment: Viability assay, MTAP-deleted cell line; format: cell-based; settings: Homo sapiens
Description: Table 1 additionally indicates IC50 values in a viability assay for the MTAP-deleted cell line (column 10), indicating the effect of treatment with compound on cell survival.

[3] = system: HAP1 MTAP-deleted cell line; experiment: SDMA in-cell western assay, HAP1 MTAP-deleted; format: cell-based; settings: for IC50: Homo sapiens; for MTAP intact/deleted ratio: SDMA in-cell western
How it was run: (§1)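 MTAP-null vs endogenous-MTAP HAP1 isogenic cells; in-cell western SDMA readout; IC50 per line.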

[4] = target: T1, PRMT5; experiment: PRMT5 biochemical IC50 assay with MTA as cofactor
[5] = system: HAP1 MTAP-intact cell line; experiment: SDMA in-cell western assay, HAP1 MTAP-intact; format: cell-based; settings: Homo sapiens
How it was run: as §1

[6] = target: T1, PRMT5; experiment: PRMT5 biochemical IC50 assay with no cofactor
Description: Table 1 indicates IC50 values (μM) against PRMT5 for exemplary compounds in the presence of SAM as cofactor, with no cofactor, and with MTA as cofactor, respectively (columns 4-6). […] Ki values can be calculated from the IC50 values as described in the Examples section. As detailed in the Examples section, for the assay performed in the presence of SAM, IC50=Ki×1.5 (Ki=IC50/1.5).

[7] = PRMT5, SAM as cofactor, read-out: SAM IC50
[8] = HAP1, viability IC50, MTAP-deleted cell line, read-out: HAP1 MTAP deleted viability
[9] = HAP1, SDMA in-cell western, HAP1 MTAP-deleted, read-out: HAP 1 MTAP deleted IC50
[10] = IC50 ratio HAP1 MTAP-intact / HAP1 MTAP-deleted
[11] = PRMT5, MTA as cofactor, read-out: MTA IC50
[12] = HAP1, SDMA in-cell western, HAP1 MTAP-intact, read-out: MTAP HAP1 intact IC50
[13] = PRMT5, no cofactor, read-out: No Cofactor/rel IC50
[14] = HAP1, viability assay, MTAP-deleted cell line, read-out: HAP1 MTAP deleted viability
[15] = HAP1, SDMA in-cell western, HAP1 MTAP-deleted, read-out: HAP1 MTAP deleted IC50
[16] = IC50 ratio HAP1 MTAP-intact vs HAP1 MTAP-deleted
[17] = PRMT5, no cofactor, read-out: No Cofactor/ rel IC50
[18] = HAP1, viability assay, HAP1 MTAP-deleted, read-out: HAP1 MTAP deleted viability

T1 sequence (O14744 whole entry): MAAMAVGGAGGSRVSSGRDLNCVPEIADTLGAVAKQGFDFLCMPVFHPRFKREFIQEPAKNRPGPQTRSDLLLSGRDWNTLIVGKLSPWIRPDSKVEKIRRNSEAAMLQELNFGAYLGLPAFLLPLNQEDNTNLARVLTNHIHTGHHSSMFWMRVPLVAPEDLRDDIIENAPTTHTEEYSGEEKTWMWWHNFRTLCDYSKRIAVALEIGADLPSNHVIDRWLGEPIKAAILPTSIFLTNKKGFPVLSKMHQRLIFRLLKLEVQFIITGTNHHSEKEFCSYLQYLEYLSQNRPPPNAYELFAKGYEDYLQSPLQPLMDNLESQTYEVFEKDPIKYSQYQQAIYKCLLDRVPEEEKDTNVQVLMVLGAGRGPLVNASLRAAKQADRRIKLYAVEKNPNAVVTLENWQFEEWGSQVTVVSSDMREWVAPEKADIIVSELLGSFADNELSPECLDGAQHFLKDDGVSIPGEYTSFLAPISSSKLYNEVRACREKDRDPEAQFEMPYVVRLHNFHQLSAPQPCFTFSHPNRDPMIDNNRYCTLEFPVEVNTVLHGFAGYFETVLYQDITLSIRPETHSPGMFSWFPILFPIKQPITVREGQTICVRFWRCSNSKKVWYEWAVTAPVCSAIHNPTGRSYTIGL
T1 sequence (Q9BQA1 whole entry partner): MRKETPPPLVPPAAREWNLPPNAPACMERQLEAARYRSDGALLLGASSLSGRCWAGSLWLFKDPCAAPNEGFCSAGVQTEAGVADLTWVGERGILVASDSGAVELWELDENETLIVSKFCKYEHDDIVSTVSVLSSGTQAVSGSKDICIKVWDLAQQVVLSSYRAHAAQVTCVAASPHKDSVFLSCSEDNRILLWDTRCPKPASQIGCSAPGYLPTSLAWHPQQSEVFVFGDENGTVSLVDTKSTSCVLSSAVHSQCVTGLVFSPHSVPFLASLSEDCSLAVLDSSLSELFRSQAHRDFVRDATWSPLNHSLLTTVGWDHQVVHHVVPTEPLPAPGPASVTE

Row | IC50 [1, 7] [nM] | IC50 [3, 9] [nM] | IC50 [4, 11] [nM] | IC50 [5, 12] [nM] | IC50 [6, 13] [nM] | IC50 [3, 15] [nM] | IC50 [6, 17] [nM] | Structure (SMILES) | IC50 [2, 8] [µM] | MTAP intact/deleted ratio [3, 10] | IC50 [2, 14] [µM] | MTAP intact/deleted ratio [3, 16] | IC50 ([1]; SAM IC50, PRMT5, SAM as cofactor) [nM] | IC50 ([2]; HAP1, read-out: HAP1 MTAP deleted viability) [µM] | IC50 ([3]; HAP1, read-out: HAP1 MTAP deleted IC50) [nM] | IC50 ([4]; MTA IC50, PRMT5, MTA as cofactor) [nM] | IC50 ([5]; HAP1, read-out: MTAP HAP1 intact IC50) [nM] | IC50 ([6]; No Cofactor/rel IC50, PRMT5, no cofactor) [nM] | IC50 ([2]; HAP1, viability, HAP1 MTAP-deleted cell line, read-out: HAP1 MTAP deleted viability) [µM] | IC50 [2, 18] [µM]
1 | 50 to 500 | 100 to 1000 | 50 to 500 | > 1000 | 50 to 500 |  |  | Cc1cc(NC(=O)C(=O)N2C[C@H](C)CC[C@H]2c2ccc(N)cn2)cnc1N (racemic) [Compound 658, N-(6-amino-5-methyl-3-pyridyl)-2-[2-(5-amino-2-pyridyl)-5-methyl-1-piperidyl]-2-oxo-acetamide] | > 10 | A (an IC50 ratio greater than or equal to 10 fold) |  |  |  |  |  |  |  |  |  | 
2 | < 50 |  | < 50 | < 100 | < 50 | < 100 |  | COc1ncc(NC(=O)C(=O)N2C[C@@H](C)CC[C@@H]2c2ccc3sc(C4CC5(C4)CN(C)C5)nc3c2)cc1C(N)=O [Compound 1236, 2-methoxy-5-(2-((2R,5S)-5-methyl-2-(2-(2-methyl-2-azaspiro[3.3]heptan-6-yl)benzo[d]thiazol-5-yl)piperidin-1-yl)-2-oxoacetamido)nicotinamide] |  |  | < 1 | A (an IC50 ratio greater than or equal to 10 fold) |  |  |  |  |  |  |  | 
3 |  |  |  |  |  |  |  | CCc1cc(NC(=O)C(=O)N2C[C@@H](C)CC[C@@H]2c2ccc3sc(C4(OC)CCN(C)CC4)nc3c2)cnc1N [Compound 1118, N-(6-amino-5-ethylpyridin-3-yl)-2-((2R,5S)-2-(2-(4-methoxy-1-methylpiperidin-4-yl)benzo[d]thiazol-5-yl)-5-methylpiperidin-1-yl)-2-oxoacetamide] |  |  |  | A (an IC50 ratio greater than or equal to 10 fold) | < 50 | < 1 | < 100 | < 50 | < 100 | < 50 |  | 
4 | > 500 |  | 50 to 500 | > 1000 | > 500 | > 1000 |  | NC(=O)c1cncc(NC(=O)C(=O)N2C[C@@H](O)CC[C@@H]2c2ccccc2)c1 (racemic) [Compound 349, 5-[[2-[(2R,5S)-5-Hydroxy-2-phenyl-1-piperidyl]-2-oxo-acetyl]amino]pyridine-3-carboxamide] |  | C* (an IC50 ratio of less than 3 fold) | > 10 |  |  |  |  |  |  |  |  | 
5 | > 500 | > 1000 | > 500 | > 1000 | > 500 |  |  | CCc1cc(NC(=O)C(=O)N2C[C@H](C)CC[C@H]2c2cccc3[nH]ncc23)cnc1N (racemic) [Compound 911, N-(6-amino-5-ethyl-3-pyridyl)-2-[(2S,5R)-2-(1H-indazol-4-yl)-5-methyl-1-piperidyl]-2-oxo-acetamide] |  | C (an IC50 ratio of less than 3 fold) | > 10 |  |  |  |  |  |  |  |  | 
6 | 50 to 500 | > 1000 | 50 to 500 | > 1000 | > 500 |  |  | C[C@@H]1CC[C@@H](c2ccc(N)cn2)N(C(=O)C(=O)Nc2cncc(C(N)=O)c2)C1 (single isomer, unassigned) [Compound 607] | > 10 | B (an IC50 ratio greater than or equal to 3 fold but lower than 10 fold) |  |  |  |  |  |  |  |  |  | 
7 | < 50 | < 100 | < 50 | < 100 |  |  | < 50 | CCc1cc(NC(=O)C(=O)N2C[C@@H](C)CC[C@@H]2c2ccc3sc([C@H]4CCN(C)C4)nc3c2)cnc1N (single isomer, unassigned) [Compound 1311] |  | A (an IC50 ratio greater than or equal to 10 fold) |  |  |  |  |  |  |  |  | < 1 | 
8 | > 500 |  | 50 to 500 | > 1000 | > 500 | > 1000 |  | C[C@@H]1C[C@H](c2ccccc2)N(C(=O)C(=O)Nc2cncc(C(N)=O)c2)C[C@@H]1C (racemic) [Compound 229, 5-[[2-[(2S,4S,5S)-4,5-dimethyl-2-phenyl-1-piperidyl]-2-oxo-acetyl]amino]pyridine-3-carboxamide] |  | B (an IC50 ratio greater than or equal to 3 fold but lower than 10 fold) | > 10 |  |  |  |  |  |  |  |  | 
9 | 50 to 500 |  | < 50 | > 1000 | 50 to 500 | 100 to 1000 |  | C[C@@H]1CC[C@@H](c2ccc(F)c(C(F)(F)F)c2)N(C(=O)C(=O)Nc2cncc(C(N)=O)c2)C1 (racemic) [Compound 255, rac-5-{2-[(2R,5S)-2-[4-Fluoro-3-(trifluoromethyl)phenyl]-5-methylpiperidin-1-yl]-2-oxoacetamido}pyridine-3-carboxamide] |  | A (an IC50 ratio greater than or equal to 10 fold) | 1 to 10 |  |  |  |  |  |  |  |  | 
10 | 50 to 500 | < 100 | < 50 | > 1000 | < 50 |  |  | Cc1cc(NC(=O)C(=O)N2C[C@H](C)CC[C@H]2c2cc(Cl)cc(Cl)c2)cnc1N (single isomer, unassigned) [Compound 681] | 1 to 10 | A (an IC50 ratio greater than or equal to 10 fold) |  |  |  |  |  |  |  |  |  | 
11 | 50 to 500 |  | < 50 | 100 to 1000 | < 50 | < 100 |  | COc1ncc(NC(=O)C(=O)N2C[C@@H](C)CC[C@@H]2c2ccc3[nH]ncc3c2)cc1C(N)=O (single isomer, unassigned) [Compound 464] |  | A (an IC50 ratio greater than or equal to 10 fold) | < 1 |  |  |  |  |  |  |  |  | 
12 | > 500 | > 1000 | > 500 | > 1000 | > 500 |  |  | COc1ncc(NC(=O)C(=O)N2C[C@H](C)C(F)(F)C[C@H]2c2ccc(C)nc2)cc1C(N)=O (single isomer, unassigned) [Compound 936] |  | C (an IC50 ratio of less than 3 fold) | > 10 |  |  |  |  |  |  |  |  | 
13 | > 500 |  | > 500 | > 1000 | > 500 | > 1000 |  | C[C@H]1CC[C@H](c2ccc(C(N)=O)s2)N(C(=O)C(=O)Nc2cncc(C(N)=O)c2)C1 (single isomer, unassigned) [Compound 796] |  | C (an IC50 ratio of less than 3 fold) |  |  |  |  |  |  |  |  |  | > 10
14 | 50 to 500 |  | < 50 | > 1000 | < 50 | < 100 |  | COc1ncc(NC(=O)C(=O)N2C[C@H](C)CC[C@H]2c2ccc(NS(C)(=O)=O)cc2)cc1C(N)=O (single isomer, unassigned) [Compound 858] |  | A (an IC50 ratio greater than or equal to 10 fold) |  |  |  |  |  |  |  |  |  | 1 to 10
15 | > 500 | > 1000 | 50 to 500 | > 1000 | 50 to 500 |  |  | C[C@@H]1CC[C@@H](c2ccc(F)cc2)N(C(=O)C(=O)Nc2cnc(OC(F)F)c(C(N)=O)c2)C1 (racemic) [Compound 889, 2-(difluoromethoxy)-5-(2-(2-(4-fluorophenyl)-5-methylpiperidin-1-yl)-2-oxoacetamido)nicotinamide] |  | B (an IC50 ratio greater than or equal to 3 fold but lower than 10 fold) | > 10 |  |  |  |  |  |  |  |  | 
16 | 50 to 500 | 100 to 1000 | < 50 | > 1000 |  |  | 50 to 500 | Cc1cc(NC(=O)C(=O)N2CCCC[C@H]2c2cccnc2)cnc1N (single isomer, unassigned) [Compound 69] |  | A (an IC50 ratio greater than or equal to 10 fold) | > 10 |  |  |  |  |  |  |  |  | 
17 | 50 to 500 |  | < 50 | > 1000 | < 50 | < 100 |  | CNc1ccc([C@H]2CC[C@H](C)CN2C(=O)C(=O)Nc2cnc(OC)c(C(N)=O)c2)cn1 (single isomer, unassigned) [Compound 447] |  | A (an IC50 ratio greater than or equal to 10 fold) | < 1 |  |  |  |  |  |  |  |  | 
18 | 50 to 500 | < 100 | 50 to 500 | 100 to 1000 | 50 to 500 |  |  | CC[C@@H]1CC[C@@H](c2cn[nH]c2)N(C(=O)C(=O)Nc2cnc(N)c(C)c2)C1 (racemic) [Compound 1032, N-(6-amino-5-methyl-3-pyridyl)-2-[(2R,5S)-5-ethyl-2-(1H-pyrazol-4-yl)-1-piperidyl]-2-oxo-acetamide] |  | B (an IC50 ratio greater than or equal to 3 fold but lower than 10 fold) | 1 to 10 |  |  |  |  |  |  |  |  | 
